Data taken from patent US20170209499A1, “Propolis and Extracts Thereof for the Treatment of Skin Cancers and Improvement of Skin Health” (Manuka Health New Zealand Limited, priority 2014, published 2017).

Experiments:
[1] = biological target: T1, COX-1 (Rattus norvegicus, UniProt Q63921); test: Anti-inflammatory assay, LPS-activated rat blood neutrophils, TXB2 ELISA (COX-1 marker); type: cell-based; conditions: 3 hours
T1 construct: endogenous in cells
T1 sequence (Q63921 27-602): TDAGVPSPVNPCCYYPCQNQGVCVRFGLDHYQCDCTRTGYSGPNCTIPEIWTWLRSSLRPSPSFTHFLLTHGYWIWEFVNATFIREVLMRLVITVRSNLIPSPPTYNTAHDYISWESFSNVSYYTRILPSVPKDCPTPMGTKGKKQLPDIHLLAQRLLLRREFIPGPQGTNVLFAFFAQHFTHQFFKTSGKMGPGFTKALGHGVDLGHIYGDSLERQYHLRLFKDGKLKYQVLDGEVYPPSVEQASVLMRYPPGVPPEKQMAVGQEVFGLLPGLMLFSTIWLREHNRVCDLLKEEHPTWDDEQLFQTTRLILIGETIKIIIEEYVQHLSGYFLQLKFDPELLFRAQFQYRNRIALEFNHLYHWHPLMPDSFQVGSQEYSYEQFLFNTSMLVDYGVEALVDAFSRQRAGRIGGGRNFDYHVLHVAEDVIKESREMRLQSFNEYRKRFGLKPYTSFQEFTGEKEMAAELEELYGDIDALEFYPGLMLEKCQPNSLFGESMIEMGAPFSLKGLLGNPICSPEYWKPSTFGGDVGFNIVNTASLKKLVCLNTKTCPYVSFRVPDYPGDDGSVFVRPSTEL
Experimental: (§1) The proliferation of cancers can follow an inflammatory pathway. […] This study was performed using LPS-activated neutrophils from rat blood to determine the inhibition of the inflammatory mediators cyclooxygenase enzymes COX I and COX II.
(§2) Anti-inflammatory assays were carried out as follows. Neutrophils from rat blood were cultured in the presence of the test sample or positive control before being activated into an inflammatory response through the use of lipopolysaccharide (LPS). The incubation period before addition of LPS was 20 minutes. The cell culture supernatants were then tested by ELISA for the presence of the cyclooxygenase COX-1 and COX-2 marker compounds thromboxane TXB2 and prostaglandin PGE2, respectively. […] The test samples were used at 50 μg and 200 μg of solids/ml, and were tested in triplicate. The incubation period for TXB2 and PGE2 was 3 hours.

[2] = biological target: T2, COX-2 (Rattus norvegicus, UniProt P35355); test: Anti-inflammatory assay, LPS-activated rat blood neutrophils, PGE2 ELISA (COX-2 marker); type: cell-based; conditions: 3 hours
T2 construct: endogenous in cells
T2 sequence (P35355 18-604): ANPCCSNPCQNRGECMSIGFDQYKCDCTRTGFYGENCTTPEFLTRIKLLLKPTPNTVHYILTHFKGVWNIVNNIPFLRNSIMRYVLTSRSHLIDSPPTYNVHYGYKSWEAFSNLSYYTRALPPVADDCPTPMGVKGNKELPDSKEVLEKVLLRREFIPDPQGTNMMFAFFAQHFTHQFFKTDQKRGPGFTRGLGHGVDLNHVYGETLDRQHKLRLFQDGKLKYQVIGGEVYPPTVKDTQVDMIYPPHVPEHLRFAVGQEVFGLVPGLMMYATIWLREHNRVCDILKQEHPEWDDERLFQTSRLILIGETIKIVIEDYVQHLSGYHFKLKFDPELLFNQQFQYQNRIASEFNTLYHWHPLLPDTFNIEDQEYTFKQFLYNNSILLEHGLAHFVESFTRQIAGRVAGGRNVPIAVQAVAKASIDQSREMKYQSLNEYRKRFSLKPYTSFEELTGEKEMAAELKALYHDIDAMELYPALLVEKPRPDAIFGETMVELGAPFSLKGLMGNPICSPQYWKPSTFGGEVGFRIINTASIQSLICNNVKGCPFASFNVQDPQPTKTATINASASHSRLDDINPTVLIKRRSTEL
Experimental: as §1, §2

COX (I), 50 μg/ml ([1]; 50 μg of solids/ml): S, NS
COX (I), 200 μg/ml ([1]; 200 μg of solids/ml): 2.3, NS
COX (II), 50 μg/ml ([2]; 50 μg of solids/ml): 10.1, NS
COX (II), 200 μg/ml ([2]; 200 μg of solids/ml): S, NS
SMILES: OC[C@H]1O[C@@H]2O[C@H]3[C@H](O)[C@@H](O)[C@@H](O[C@H]4[C@H](O)[C@@H](O)[C@@H](O[C@H]5[C@H](O)[C@@H](O)[C@@H](O[C@H]6[C@H](O)[C@@H](O)[C@@H](O[C@H]7[C@H](O)[C@@H](O)[C@@H](O[C@H]8[C@H](O)[C@@H](O)[C@@H](O[C@H]9[C@H](O)[C@@H](O)[C@@H](O[C@H]1[C@H](O)[C@H]2O)O[C@@H]9CO)O[C@@H]8CO)O[C@@H]7CO)O[C@@H]6CO)O[C@@H]5CO)O[C@@H]4CO)O[C@@H]3CO [IFS#11, Gamma cyclodextrin]
